Measurements from patent US5214045A, “Amino acid containing acrylamide derivatives for ulcer prevention or treatment” (Richter Gedeon Vegyeszeti Gyar RT, priority 1989, dated 1993).

Tests used:
gastric acid secretion = experiment: Assay of the inhibition of gastric acid secretion by using pylorus ligature; type: in vivo; conditions: female Wistar rats, 4 hours
Procedure: 2) Assay of the inhibition of gastric acid secretion by using pylorus ligature
[Shay et al., Gastroenterology, 5, 43-61 (1945)]
Before ligating the pylorus, the test compounds suspended with Tween were given orally at a volume of 0.5 ml per […] of body weight to female Wistar rats fasted previously for 20 hours. The animals were sacrificed 4 hours after the operation, and the amount of the acid in the stomach was measured by titration with 0.01N sodium hydroxide solution in the presence of phenolphthalein indicator. The pH value of the content of the stomach was measured by using a pH-meter (Radelkis, Type OP-211/1).

[1] = test system: gastric injuries induced by acidic alcohol; experiment: Assay of gastric injuries induced by acidic alcohol; type: in vivo; conditions: female rats; for ED50: Rattus norvegicus, po, pretreatment 30 min, length of haemorrhagic lesions
Procedure: 1) Assay of gastric injuries induced by acidic alcohol
Female rats weighing about 120 to 150 g fasted for 24 hours were used in this test. Test compounds suspended with Tween 80 were given orally to the animals through an intragastric tube. After a certain period (pretreatmenttime) acidic alcohol was given through the intragastric tube at a dose or 0.5 ml per 100 g of body weight. The animals were sacrificed after 1 hour, their stomachs were removed and incised along the great curve. The length of the reddish-brown strips (haemorrhagic lesions) was measured and the mean total length per stomach was calculated. The biological activity of the test compounds was given and compared to that of the control group. the results are shown in Tables 1 and 2 below.

Row | Compound | % Inhibition in the amount of the acid at a dose of 25 mg/kg p.o. (pretreatment: 30 min) (gastric acid secretion) | ED50 [1] | % Inhibition at a dose of 10 mg/kg p.o. (pretreatment: 30 min) [1]
1 | CCOC(=O)C[C@@H](NC(=O)/C=C/[S+]([O-])c1ccccc1)C(=O)OCC (stereo partly drawn) [A, Diethyl N-[3-phenylsulfinyl-2(E)-propenoyl]-(R)-aspartate] | 30% | 2.1 mg/kg | 
2 | CCOC(=O)C[C@@H](NC(=O)/C=C/S(=O)(=O)c1ccccc1)C(=O)OCC [B, Diethyl N-[3-phenylsulfonyl-2(E)-propenoyl]-(R)-aspartate] |  | 3.5 mg/kg | 
3 | O=C(/C=C/S(=O)(=O)c1ccccc1)N1CCN(c2ccccc2)CC1 [C, 1-[3-Phenylsulfonyl-2(E)-propenoyl]-4-phenyl-piperazine] | 20% |  | 
4 | COC(=O)[C@H](CCSC)NC(=O)/C=C/S(=O)(=O)c1ccccc1 [D, Methyl 2(S)-[3-phenylsulfonyl-2(E)-propenoylamino]-4-methylthiobutyrate] |  | 3.5 mg/kg | 
5 | CCOC(=O)C[C@@H](NC(=O)/C=C/Sc1ccccc1)C(=O)OCC [E, Diethyl N-[3-phenylthio-2(E)-propenoyl]-(R)-aspartate] | 20% |  | 20%
6 | CCOC(=O)C[C@H](NC(=O)/C=C/Sc1ccccc1)C(=O)OCC [F, Diethyl N-[3-phenylthio-2(E)-propenoyl]-(S)-aspartate] | 20% |  | 20%
7 | NC(=O)[C@@H]1CCCN1C(=O)/C=C/S(=O)(=O)c1ccccc1 [G, 1-[3-Phenylsulfonyl-2(E)-propenoyl]-2(S)-carbamoylpyrrolidine] | 30% | 4.5 mg/kg | 
8 | CCOC(=O)CNC(=O)/C=C/S(=O)(=O)c1ccccc1 [H, Ethyl N-[3-phenylsulfonyl-2(E)-propenoyl]glycinate] | 30% | 1.6 mg/kg | 
9 | CCOC(=O)[C@H](C)NC(=O)/C=C/S(=O)(=O)c1ccccc1 [I, Ethyl N-[3-phenylsulfonyl-2(E)-propenoyl]-(S)alanate] | 20% | 2.2 mg/kg | 
10 | COC(=O)[C@@H]1CSCN1C(=O)/C=C\Sc1ccccc1 [J, Methyl N-[3-phenylthio-2(Z)-propenoyl]-(R)-thiazolidine-4-carboxylate] |  |  | 20%
11 | O=C(O)C[C@@H](NC(=O)/C=C/S(=O)(=O)c1ccccc1)C(=O)O [K, Magnesium N-[3-phenylsulfonyl-2(E)-propenoyl]-(R)aspartate.4H2 O] | 30% |  | 
